US12528774B2, “Thiosemicarbazone compounds and uses thereof” (The Regents of the University of California, priority 2019, dated 2026)
“And” between values parts separate entries of the source, which are not always exact repeats. Equal entries are not always repeated. Where two headings read alike, the source gives them in different places.

Tests used:
[1] = test system: MIAPACA2 cells; experiment: Proliferation assay (CellTiter-Glo, 72 h) in MIAPACA2 cells; assay type: cell-based, human; details: for IC90: Homo sapiens, MIA PaCa-2, 72 h, MIAPACA2, 72 h
Description: IC90 values against MIAPACA2 cells was first determined in normal cell culture conditions (DMEM media and 10% FBS). Compounds were separated into three series (4′ primary amines, 4′ secondary amines, 4′ tertiary amines) to reflect the relative degrees of 4′ amine methylation. […] (Refs 41, 42).
HCT compounds are known to be copper chelators. (Ref. 32). To test whether the compounds described herein were similarly potentiated, the IC90 (+Cu IC90) values were determined against MIAPACA2 cells in media supplemented with physiologically relevant levels of copper (DMEM media+10% FBS+20 μM CuCl2). MIAPACA2 cells were treated with the indicated HCT±20 μM Cu(II) for 72 hours, then cell viability was measured with CellTiter-Glo to determine IC90 values.
(§1) Proliferation assay: Cells were plated in 384-well plates (500 cells/well for adherent cell lines in 30 μl volume). Drugs were serially diluted to the desired concentrations and an equivalent volume of DMSO was added to vehicle control. Following 72 h incubation, ATP content was measured using CellTiter-Glo reagent according to manufacturer's instructions (Promega, CellTiter-Glo Luminescent Cell Viability Assay), and analyzed by SpectraMax luminometer (Molecular Devices). IC50 and IC90 values, concentrations required to inhibit proliferation by 50% and 90% respectively compared to DMSO treated cells, were calculated using Prism 6.0 h (Graphpad Software).
as §1, with “assay.” for “assay:”, “Software). The 430-member protein kinase inhibitor library used for the chemical genomics screen was purchased from Selleckchem, Catalog No. L1200.” for “Software).”

[2] = test system: MIAPACA2 cells; experiment: Viability assay (trypan blue) in MIAPACA2 cells with co-treatments; assay type: cell-based
Description: FIG. 1A: IC50 values in a panel of human and mouse prostate cancer (PC)(cell lines CF-2, LNCaP, 22Rv1, RM-1, MyC CaP); small cell lung carcinoma (SCLC)(cell lines NCI-H1963, NCI-H146, NCI-H526); pancreatic ductal adenocarcinoma (PDAC)(CFPAC1, SW1990, HS766T, PANC0203, PANC0813, ASPC1, HPAFII, PATU8902, PANC0327, PANC1, YAPC, L36PL, XWR200, HUPT4, A13A, SUIT2, DAN-G, BxPC3, HPAC, PSN1, SU8686, KP4662, MIAPACA2, PATU8988T); and leukemia (cell lines KG-1, TF-1, Jurkat, MOLT-4, p185-R, MV4-11) models treated with HCT13+Cu(II) (20 μM) for 72 h measured by CellTiterGlo. […] (mean±SD, n=2, one-way ANOVA corrected for multiple comparisons by Bonferroni adjustment, * P<0.05; **P<0.01; ***P<0.001).
FIGS. 2A-2I. FIG. 2A: representative immunoblots of MIAPACA2 PDAC cells treated as indicated for 24h. FIGS. 2B-2C: reactive oxygen species (ROS) measurement using CM-H2DCFDA staining after HCT13 (25 nM)+Cu(II) (20 μM) treatment for 24h; mean fluorescence intensity (MFI); mean±SD, n=2, Student t-test, ***P<0.001. FIG. 2D-2E: mitochondrial ROS detection using MitoSOX staining in MIAPACA2 PDAC cells treated with HCT-13 (25 nM)+Cu(II) (20 μM) for 24h; mean±SD, n=2, Student t-test, ***P<0.001. FIG. 2F: oxygen consumption rate (OCR) of MIAPACA2 PDAC cells treated with HCT-13 (25 nM)+Cu(II) (20 μM). FIG. 2G: OCR of isolated mitochondria measured with or without HCT-13 (25 nM)+Cu(II) (20 μM). FIG. 2H: viability of 143 BTK parental (wild type, WT) and po cells after 48 h of treatment with the indicated HCT-13 concentrations+Cu(II) (20 μM) treatment, assessed with trypan blue staining; mean±SD, n=2, Student t-test, ***P<0.001. FIG. 2I: cell viability by trypan blue staining in MIAPACA2 PDAC cells to interrogate the interaction of HCT-13 (25 nM)+Cu(II) (20 μM) with 2-DG (2 mM) for 48 h; mean±SD, n=2, Student t-test, ***P<0.001.
FIG. 5A: rescue of HCT-13 (25 nM)-induced cell death by Uridine (rU) (200 μM), Pyruvate (1 mM), or both following 48h of treatment. FIG. 5B: measurement of DHODH activity using recombinant DHODH assay following treatment with indicated perturbations for 2 min. DHODH inhibitor used: NITD-982-1 μM; HCT-13-100 nM, 1 μM, (100 nM data shown); Cu(II)—20 μM. (mean±SD, n=2, Student t-test, * P<0.05).
Viability/Apoptosis assay: Viable cells were measured by Trypan blue staining using vi-cell counter (Beckman Coulter, CA, USA). Apoptosis and cell death were assayed using Annexin V-FITC and PI according to manufacturer's instructions (FITC Annexin V Apoptosis Detection Kit, BD Sciences, #556570).
Viability/Apoptosis assay. Viable cells were measured by Trypan blue staining using a Vi-Cell counter (Beckman Coulter, CA, USA). […]

[3] = test system: MIAPACA2 cells; experiment: Proliferation assay (CellTiter-Glo, 72 h) in MIAPACA2 cells; assay type: cell-based, human

CN(C)C(=S)N/N=C/c1nccc2cc(F)ccc12 (mixture of isomers) [HCT13, (E)-2-((6-Fluoroisoquinolin-1-yl)methylene)-N,N-dimethylhydrazine-1-carbothioamide and (Z)-2-((6-Fluoroisoquinolin-1-yl)methylene)-N,N-dimethylhydrazine-1-carbothioamide]
increase in potency under copper supplementation versus non-copper-supplemented IC90 ([1]; 20 μM CuCl2): greater than 5 fold
antiproliferative potency with Cu(II) supplementation ([1]; 72 h, Cu(II) 20 μM): highest
IC90 ([1]; DMEM + 10% FBS + 20 μM CuCl2, read-out: +Cu(II) IC90): 21.6 nM
IC90 ([1]; DMEM + 10% FBS, no copper supplementation, read-out: IC90): 110 nM
potency relative to non-methylated analog HCT3 ([1]; IC90 without copper): ~50 fold
potency relative to non-fluorinated analog ([1]; IC90 without copper, analog of same 4′ amine series (HCT1, HCT6 or HCT11)): ~250 fold and ~270 fold
cytotoxicity in presence of bathocuproine disulfonate (BCPS) ([2]; HCT13 25 nM + Cu(II) 20 μM, 24 h, BCPS 300 μM): abrogated
activity with co-administration of 2-deoxyglucose (2-DG) ([2]; HCT-13 25 nM + Cu(II) 20 μM, 2-DG 2 mM, 48 h): significantly potentiated
cytotoxicity with pyruvate supplementation ([2]; HCT-13 25 nM, pyruvate 1 mM, 48 h): not by pyruvate
cytotoxicity with uridine (rU) supplementation ([2]; HCT-13 25 nM, uridine 200 μM, 48 h): partially abolished
antiproliferative potency with Fe(II) supplementation ([3]; Fe(II) 20 μM): diminished but still active
antiproliferative potency with Zn(II) supplementation ([3]; Zn(II) 20 μM): largely inactive
